Columns and labels:
Format in all cases: in vivo
Bemisia tabaci SUD-S = assay: Leaf-dip bioassay, adult whiteflies, insecticide-susceptible strain SUD-S; settings: adults, mortality after 72 h
Text: Es wurden Versuche durchgeführt, um die überlegene Blattwirkung von Enaminocarbonylverbindungen gegen adulte Tiere eines Stamms von Bemisia tabaci zu zeigen, der bekanntermaßen resistent ist gegen Neonikotinoid-Insektizide sowie andere Insektizidklassen, einschließlich Insekten-Wachstumsregulatoren (wie Buprofezin) und Antifeedants (Substanzen, die einen Schaderreger vom Fraß abhalten) (wie Pymetrozin).
Baumwollblattscheiben (30 mm im Durchmesser) wurden für 5 sec in wässrige Lösungen technischer Insektizide, enthaltend 0,2 g/l Triton-X-100 als nicht-ionisches Benetzungsmittel, getaucht. Luftgetrocknete Blattscheiben wurden dann mit der adaxialen Seite nach unten auf ein Agarbett (12 g/l) in einer kleinen Petrischale (40 mm im Durchmesser) gelegt. Adulte Weiße Fliegen wurden mittels eines Vakuum-getriebenen Aspirators aus Aufzuchtkäfigen eingesammelt und 20 adulte Tiere wurden nach kurzer CO2-Narkose auf die Blattscheiben gelegt. Anschließend wurde jede Petrischale mit einem belüfteten Deckel verschlossen und umgedreht aufbewahrt. Nach 72 h wurde die Mortalität der Weißen Fliegen bestimmt. Jedes Insektizid wurde mindestens dreifach mit 2-oder 3-fach Bestimmungen pro Konzentration getestet.
LC50-Werte wurden aus Probit-Regressionen unter Verwendung des Computerprogramms POLO-PC 2 (LeOra Software, Berkeley, USA) berechnet.
Tabelle 1. Log-Dosis Probit Mortalitätsdaten für verschiedene Klassen von Insektiziden erhalten aus Blatt-Tauch-Bioassays gegen adulte Tiere zweier Bemisia tabaci Stämme, SUD-S und ESP-00, die bekanntermaßen Insektizid-empfindlich (SUD-S) bzw. multiresistent (ESP-00) sind (Stumpf und Nauen, 2003). Mortalität wurde nach 72 h bestimmt, mit Ausnahme von Buprofezin (10-12 d).

[1] = tested on: Nymphen von Bemisia tabaci; assay: Field trial on pepper plants, spray, against nymphs of neonicotinoid-resistant whiteflies (Almeria); settings: sprayed 3x, 150 g ai/ha/m CH, I-5 SL 200, Imidacloprid OD 200
Text: In Almeria (Südspanien) wurden Paprikapflanzen, die sehr stark mit Nymphen von bekanntermaßen Neonikotinoyl-resistenten Weißen Fliegen (Bemisia tabaci) infiziert waren, jeweils drei Mal im Abstand von 9 und 12 Tagen mit der Verbindung I-5 (SL 200, 150 g ai/ha/m CH (g aktive Substanz/ha/m CH, CH = Laubwand-Höhe) bzw. mit Imidacloprid (OD 200, 150 g ai/ha/m CH) besprüht. Zu verschiedenen Zeitpunkten nach der dritten Behandlung (DAC = Tage nach 3. Behandlung) wurde die Wirksamkeit (in % Abbott: Verhältnis der Anzahl Nymphen auf behandelter Pflanze / Fläche zur Anzahl Nymphen auf Kontrolle) der beiden Substanzen gegen Nymphen von Bemisia tabaci in bestimmt.

[2] = tested on: Nymphen von Bemisia tabaci; assay: Field trial on cotton plants, spray, against nymphs of neonicotinoid-resistant whiteflies (Brenes); settings: sprayed 2x, 150 g ai/ha/m CH, I-5 SL 100, Imidacloprid SL 200
Text: In Brenes (Spanien) wurden Baumwollpflanzen, die stark mit Nymphen von bekanntermaßen Neonikotinoyl-resistenten Weißen Fliegen (Bemisia tabaci) infiziert waren, jeweils zwei Mal im Abstand von 13 Tagen mit der Verbindung I-5 (SL 100, 150 g ai/ha/m CH (g aktive Substanz/ha/m CH, CH = Laubwand-Höhe) bzw. mit Imidacloprid (SL 200, 150 g ai/ha/m CH) besprüht. Zu verschiedenen Zeitpunkten nach der ersten bzw. zweiten Behandlung (DAA = Tage nach 1. Behandlung, DAB = Tage nach zweiter Behandlung) wurde die Wirksamkeit (in % Abbott: Verhältnis der Anzahl Nymphen auf behandelter Pflanze / Fläche zur Anzahl Nymphen auf Kontrolle) der beiden Substanzen gegen Nymphen von Bemisia tabaci in bestimmt.

Nilaparvata lugens = assay: Field trial on rice plants, spray, against neonicotinoid-resistant brown planthoppers (Thailand); settings: 50 g ai/ha/m CH, both SL 100
Text: In Banglane (Thailand) wurden Reispflanzen, die stark mit bekanntermaßen Neonikotinoyl-resistenten Braunrückigen Reiszikaden (Nilaparvata lugens) infiziert waren, jeweils zwei Mal im Abstand von 14 Tagen mit der Verbindung 1-5 (SL 100, 50 g ai/ha/m CH (g aktive Substanz/ha/m CH, CH = Laubwand-Höhe) bzw. mit Imidacloprid (SL 100, 50 g ai/ha/m CH) besprüht. Zu verschiedenen Zeitpunkten nach der ersten bzw. zweiten Behandlung (DAA = Tage nach 1. Behandlung, DAB = Tage nach zweiter Behandlung) wurde die Wirksamkeit (in % Abbott: Verhältnis der Anzahl Tier auf behandelter Pflanze / Fläche zur Anzahl Tiere auf Kontrolle) der beiden Substanzen gegen Nilaparvata lugens bestimmt.

[3] = 7 DAC (days after 3rd treatment)

O=[N+]([O-])NC1=NCCN1Cc1ccc(Cl)nc1 [Imidacloprid]
SUD-S LC50 (Bemisia tabaci SUD-S): 0.82 ppm | Effizienz [1, 3]: 76,7 % Abbott | Effizienz ([1]; 14 DAC): 75,3 % Abbott | Effizienz ([1]; 21 DAC): 75,1 % Abbott | Effizienz ([1]; 28 DAC): 1,3 % Abbott | Effizienz ([2]; 13 DAB): 60 % Abbott | Effizienz ([2]; 15 DAB): 56,9 % Abbott | Effizienz ([2]; 25 DAB): 42,1 % Abbott | Effizienz ([2]; 36 DAB): 24,3 % Abbott | Effizienz (Nilaparvata lugens; 1 DAA, sprayed): 19,6 % Abbott | Effizienz (Nilaparvata lugens; 3 DAA, sprayed): 24,9 % Abbott | Effizienz (Nilaparvata lugens; 5 DAA, sprayed): 36,5 % Abbott | Effizienz (Nilaparvata lugens; 7 DAA, sprayed): 26,6 % Abbott | Effizienz (Nilaparvata lugens; 7 DAB, sprayed 2x): 19,8 % Abbott | Effizienz (Nilaparvata lugens; 14 DAA, sprayed): 17,8 % Abbott | Effizienz (Nilaparvata lugens; 14 DAB, sprayed 2x): 26,4 % Abbott

O=C1C=C(N(Cc2ccc(Cl)nc2)CC(F)F)CO1 [Verbindung I-5, 4-{[(6-Chlorpyrid-3-yl)methyl](2,2-difluorethyl)amino}furan-2(5H)-on]
SUD-S LC50 (Bemisia tabaci SUD-S): 6.7 ppm | Effizienz [1, 3]: 99,2 % Abbott | Effizienz ([1]; 14 DAC): 98,5 % Abbott | Effizienz ([1]; 21 DAC): 97,4 % Abbott | Effizienz ([1]; 28 DAC): 84,3 % Abbott | Effizienz ([2]; 13 DAB): 78,9 % Abbott | Effizienz ([2]; 15 DAB): 63,5 % Abbott | Effizienz ([2]; 25 DAB): 77,8 % Abbott | Effizienz ([2]; 36 DAB): 70,8 % Abbott | Effizienz (Nilaparvata lugens; 1 DAA, sprayed): 19 % Abbott | Effizienz (Nilaparvata lugens; 3 DAA, sprayed): 39 % Abbott | Effizienz (Nilaparvata lugens; 5 DAA, sprayed): 66,8 % Abbott | Effizienz (Nilaparvata lugens; 7 DAA, sprayed): 70,3 % Abbott | Effizienz (Nilaparvata lugens; 7 DAB, sprayed 2x): 69,5 % Abbott | Effizienz (Nilaparvata lugens; 14 DAA, sprayed): 65,7 % Abbott | Effizienz (Nilaparvata lugens; 14 DAB, sprayed 2x): 55,9 % Abbott

Source: patent EP2198709A1, “Method for treating resistant animal pests” (Bayer CropScience AG, priority 2008, dated 2010)
